Source: patent publication US12098193B2, “Netrin G1 as a biomarker for enhancing tumor treatment efficacy” (Institute For Cancer Research, priority 2017, dated 2024)
Peptide text beside a SMILES is read from it. * marks the point of attachment. Cbz = O=C(OCc1ccccc1)*; CH2F = FC*

Columns and labels:
Type in all cases: cell-based
PDAC cells [1] = assay: cell death quantification of PDAC (CON or NGL1 knockout) cultured alone or co-cultured with CAFs in 3D under stressful conditions; conditions: stressful 3D culture (FIG. 9)
Protocol: NGL1 expression in PDAC determined the mode of cell death under stressful co-culture conditions with CAFs. Referring to FIG. 9 (panel A), cell death quantification of PDAC (CON or knockout) cultured alone in 3D was carried out. Referring to FIG. 9 (panel B), cell death quantification of PDAC (CON or knockout) co-cultured with CAFs (CON or knockout) in 3D was also carried out. […] Also, knockout of NetG1 I CAFs drove PDAC to higher amounts of death across all conditions.

PDAC cells [2] = assay: PDAC survival in stressful culture conditions (serum free, glutamine free) with CAFs; conditions: FIG. 7
Source text: Referring to FIG. 7 (panel B), extracellular matrix produced by NetG1 knockout CAFs is less supportive to PDAC survival. Referring to FIG. 7 (panel C), knockout of NetG1 in CAFs produced less glutamate and glutamine. Referring to FIG. 7 (panel D), knockout of NetG1 in CAFs and knockout of NGL1 in PDAC expressed less glutamine/glutamate related proteins.

PDAC cells [3] = assay: NK cell killing assay in 3D (CAF ECM); conditions: added to NetG1 knockout CAFs; FIG. 11 panel D
Protocol: Knockout of NetG1 in CAFs reduced immunosuppressive cytokine secretion, and CAFs protected PDAC from NK cell induced death in a NetG1/NGL1-dependent manner. Referring to FIG. 11 (panel A), a panel of immunosuppressive and pro-tumor cytokines (GM-CSF, IL-1Beta, CCL20, IL-6, IL-8, TGF-beta) and NK stimulating cytokine (IL-15) was performed. Knockout of NetG1 in CAFs produced less of all cytokines tested, but still produced significant levels of the anti-tumor NK cell cytokine IL-15. Referring to FIG. 11 (panel B), an assay was performed with Granzyme B and IFN-g production in NK cells stimulated with IL-2+IFN-γ (positive controls) or in co-culture conditions with conditioned media or direct contact with CAFs (CON vs knockout of NetG1). Knockout of NetG1 in CAF media or direct contact partially activated NK cells. Referring to FIG. 11 (panel C), an NK cell killing assay in 3D (CAF ECM) was carried out. Knockout of NetG1 in CAFs allowed NK cells to kill PDAC, while CON CAFs protected PDAC.

Row | SMILES | mode of cell death of NGL1+ PDAC under caspase inhibition (PDAC cells [1]; NGL1+ PDAC) | cell death of NGL- PDAC under caspase inhibition (PDAC cells [1]; NGL1 knockout PDAC) | PDAC survival after adding back to the stressful culture conditions (PDAC cells [2]) | protection of PDAC from NK cell-induced death (PDAC cells [3])
1 | CC(NC(=O)C(NC(=O)OCc1ccccc1)C(C)C)C(=O)NC(CC(=O)O)C(=O)CF (stereo not drawn) [zvad] (Cbz-Val-Ala-Asp-CH2F; configuration not given here) | driven to necroptotic death | protected from death | – | –
2 | N[C@@H](CCC(=O)O)C(=O)O [glutamate] | – | – | partially rescued PDAC survival | partially restored protection
3 | NC(=O)CC[C@H](N)C(=O)O [glutamine] | – | – | partially rescued PDAC survival | –
